How the values were obtained:
Experiment in all cases: relative viability (nuclei count vs DMSO), 5 days (fraction); higher = more cells survive
[1] = test system: HCC-827
Method in brief: (§1)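 Relative viability was taken as the ratio of nuclei in treated wells to nuclei in vehicle wells. Lung cancer cell lines in 1536-well plates received compounds by pin tool one day after seeding, either one drug alone or a fixed anchor-drug dose plus five library-drug doses (not always all listed) in √10 steps. Nuclei were counted on 4× images after 5 days of treatment, and values are medians of duplicate plates.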

[2] = test system: NCI-H322M
Method in brief: as §1

[3] = test system: NCI-H1651
Method in brief: as §1

[4] = test system: SK-MES-1
Method in brief: as §1

[5] = test system: NCI-H1355
Method in brief: as §1

[6] = test system: HCC-15
Method in brief: as §1

[7] = test system: NCI-H2405
Method in brief: as §1

[8] = test system: CAL-12T
Method in brief: as §1

[9] = test system: EKVX
Method in brief: as §1

[10] = test system: NCI-H2228
Method in brief: as §1

[11] = test system: RERF-LC-KJ
Method in brief: as §1

[12] = test system: PC-14
Method in brief: as §1

[13] = test system: COR-L23
Method in brief: as §1

[14] = test system: LK-2
Method in brief: as §1

[15] = test system: ABC-1
Method in brief: as §1

[16] = test system: NCI-H1734
Method in brief: as §1

[17] = test system: NCI-H1437
Method in brief: as §1

[18] = test system: NCI-H520
Method in brief: as §1

[19] = test system: PC-3 [JPC-3]
Method in brief: as §1

[20] = test system: NCI-H661
Method in brief: as §1

[21] = test system: H3255
Method in brief: as §1

[22] = test system: SW 1573
Method in brief: as §1

[23] = test system: NCI-H1563
Method in brief: as §1

Question: How did the relative viability ([1]; first compound 0.04 µM) turn out when `COc1cc(N2CCC(C(N)=O)CC2)ccc1Nc1nc(N)c(Cl)c(Nc2ccccc2S(=O)(=O)C(C)C)n1` [HG-5-88-01] + Cc1nc(NC(=O)N2CCC[C@H]2C(N)=O)sc1-c1ccnc(C(C)(C)C(F)(F)F)c1 [Alpelisib] (partner 2 µM) was run?
Answer: 1.04

Question: And the relative viability ([1]; first compound 0.1265 µM)?
Answer: 1.01

Question: What about the relative viability ([1]; first compound 0.4 µM) of the same compound?
Answer: 1.05

Question: And the relative viability ([1]; first compound 1.265 µM)?
Answer: 0.849

Question: What about the relative viability ([1]; first compound 4 µM) of the same compound?
Answer: 0.353

Question: What about the relative viability ([2]; first compound 0.04 µM) of the same compound?
Answer: 0.774

Question: And the relative viability ([2]; first compound 0.1265 µM)?
Answer: 0.841

Question: What about the relative viability ([2]; first compound 0.4 µM) of the same compound?
Answer: 0.903

Question: And the relative viability ([2]; first compound 1.265 µM)?
Answer: 0.726

Question: What about the relative viability ([2]; first compound 4 µM) of the same compound?
Answer: 0.639

Question: And the relative viability ([3]; first compound 0.04 µM)?
Answer: 0.927

Question: And the relative viability ([3]; first compound 0.1265 µM)?
Answer: 1

Question: What about the relative viability ([3]; first compound 0.4 µM) of the same compound?
Answer: 0.962

Question: And the relative viability ([3]; first compound 1.265 µM)?
Answer: 0.906

Question: And the relative viability ([3]; first compound 4 µM)?
Answer: 1.2

Question: And the relative viability ([4]; first compound 0.04 µM)?
Answer: 0.925

Question: And the relative viability ([4]; first compound 0.1265 µM)?
Answer: 0.582

Question: What about the relative viability ([4]; first compound 0.4 µM) of the same compound?
Answer: 1.07

Question: And the relative viability ([4]; first compound 1.265 µM)?
Answer: 0.941

Question: What about the relative viability ([4]; first compound 4 µM) of the same compound?
Answer: 0.86

Question: And the relative viability ([5]; first compound 0.04 µM)?
Answer: 0.881

Question: What about the relative viability ([5]; first compound 0.1265 µM) of the same compound?
Answer: 0.934

Question: What about the relative viability ([5]; first compound 0.4 µM) of the same compound?
Answer: 0.775

Question: And the relative viability ([5]; first compound 1.265 µM)?
Answer: 0.767

Question: What about the relative viability ([5]; first compound 4 µM) of the same compound?
Answer: 0.737

Question: And the relative viability ([6]; first compound 0.04 µM)?
Answer: 0.925

Question: And the relative viability ([6]; first compound 0.1265 µM)?
Answer: 0.865

Question: What about the relative viability ([6]; first compound 0.4 µM) of the same compound?
Answer: 0.936

Question: And the relative viability ([6]; first compound 1.265 µM)?
Answer: 0.832

Question: And the relative viability ([6]; first compound 4 µM)?
Answer: 0.775

Question: What about the relative viability ([7]; first compound 0.04 µM) of the same compound?
Answer: 0.749

Question: And the relative viability ([7]; first compound 0.1265 µM)?
Answer: 0.832

Question: What about the relative viability ([7]; first compound 0.4 µM) of the same compound?
Answer: 0.726

Question: What about the relative viability ([7]; first compound 1.265 µM) of the same compound?
Answer: 0.418

Question: What about the relative viability ([7]; first compound 4 µM) of the same compound?
Answer: 0.794

Question: What about the relative viability ([8]; first compound 0.04 µM) of the same compound?
Answer: 1.11

Question: What about the relative viability ([8]; first compound 0.1265 µM) of the same compound?
Answer: 1.3

Question: And the relative viability ([8]; first compound 0.4 µM)?
Answer: 1.19

Question: What about the relative viability ([8]; first compound 1.265 µM) of the same compound?
Answer: 1.12

Question: And the relative viability ([8]; first compound 4 µM)?
Answer: 0.874

Question: What about the relative viability ([9]; first compound 0.04 µM) of the same compound?
Answer: 0.888

Question: What about the relative viability ([9]; first compound 0.1265 µM) of the same compound?
Answer: 0.914

Question: What about the relative viability ([9]; first compound 0.4 µM) of the same compound?
Answer: 0.823

Question: What about the relative viability ([9]; first compound 4 µM) of the same compound?
Answer: 0.814

Question: What about the relative viability ([10]; first compound 0.04 µM) of the same compound?
Answer: 0.242

Question: What about the relative viability ([10]; first compound 0.1265 µM) of the same compound?
Answer: 0.297

Question: What about the relative viability ([10]; first compound 0.4 µM) of the same compound?
Answer: 0.324

Question: And the relative viability ([10]; first compound 1.265 µM)?
Answer: 0.224

Question: What about the relative viability ([10]; first compound 4 µM) of the same compound?
Answer: 0.476

Question: What about the relative viability ([11]; first compound 0.04 µM) of the same compound?
Answer: 0.838

Question: What about the relative viability ([11]; first compound 0.1265 µM) of the same compound?
Answer: 0.675

Question: What about the relative viability ([11]; first compound 0.4 µM) of the same compound?
Answer: 0.935

Question: And the relative viability ([11]; first compound 1.265 µM)?
Answer: 0.551

Question: And the relative viability ([11]; first compound 4 µM)?
Answer: 0.874

Question: And the relative viability ([12]; first compound 0.04 µM)?
Answer: 0.884

Question: And the relative viability ([12]; first compound 0.1265 µM)?
Answer: 0.849

Question: And the relative viability ([12]; first compound 0.4 µM)?
Answer: 0.882

Question: And the relative viability ([12]; first compound 1.265 µM)?
Answer: 0.89

Question: And the relative viability ([12]; first compound 4 µM)?
Answer: 0.851

Question: What about the relative viability ([13]; first compound 0.04 µM) of the same compound?
Answer: 0.774

Question: What about the relative viability ([13]; first compound 0.1265 µM) of the same compound?
Answer: 0.79

Question: What about the relative viability ([13]; first compound 0.4 µM) of the same compound?
Answer: 0.68

Question: What about the relative viability ([13]; first compound 1.265 µM) of the same compound?
Answer: 0.524

Question: What about the relative viability ([13]; first compound 4 µM) of the same compound?
Answer: 0.462

Question: What about the relative viability ([14]; first compound 0.04 µM) of the same compound?
Answer: 1.16

Question: What about the relative viability ([14]; first compound 0.1265 µM) of the same compound?
Answer: 1.23

Question: What about the relative viability ([14]; first compound 0.4 µM) of the same compound?
Answer: 0.975

Question: And the relative viability ([14]; first compound 1.265 µM)?
Answer: 0.632

Question: And the relative viability ([14]; first compound 4 µM)?
Answer: 1.8

Question: What about the relative viability ([15]; first compound 0.04 µM) of the same compound?
Answer: 0.919

Question: And the relative viability ([15]; first compound 0.1265 µM)?
Answer: 0.885

Question: What about the relative viability ([15]; first compound 0.4 µM) of the same compound?
Answer: 0.855

Question: What about the relative viability ([15]; first compound 1.265 µM) of the same compound?
Answer: 0.713

Question: What about the relative viability ([15]; first compound 4 µM) of the same compound?
Answer: 0.993

Question: What about the relative viability ([16]; first compound 0.04 µM) of the same compound?
Answer: 0.633

Question: What about the relative viability ([16]; first compound 0.1265 µM) of the same compound?
Answer: 0.657

Question: And the relative viability ([16]; first compound 0.4 µM)?
Answer: 0.727

Question: And the relative viability ([16]; first compound 1.265 µM)?
Answer: 0.713

Question: What about the relative viability ([16]; first compound 4 µM) of the same compound?
Answer: 0.799

Question: What about the relative viability ([17]; first compound 0.04 µM) of the same compound?
Answer: 1.03

Question: And the relative viability ([17]; first compound 0.1265 µM)?
Answer: 1.09

Question: What about the relative viability ([17]; first compound 0.4 µM) of the same compound?
Answer: 0.873

Question: What about the relative viability ([17]; first compound 1.265 µM) of the same compound?
Answer: 0.964

Question: And the relative viability ([17]; first compound 4 µM)?
Answer: 1.02

Question: What about the relative viability ([18]; first compound 0.04 µM) of the same compound?
Answer: 0.85

Question: And the relative viability ([18]; first compound 0.1265 µM)?
Answer: 0.94

Question: What about the relative viability ([18]; first compound 0.4 µM) of the same compound?
Answer: 0.884

Question: What about the relative viability ([18]; first compound 1.265 µM) of the same compound?
Answer: 1.01

Question: And the relative viability ([18]; first compound 4 µM)?
Answer: 1.03

Question: What about the relative viability ([19]; first compound 0.04 µM) of the same compound?
Answer: 0.965

Question: What about the relative viability ([19]; first compound 0.1265 µM) of the same compound?
Answer: 1.04

Question: And the relative viability ([19]; first compound 0.4 µM)?
Answer: 1

Question: What about the relative viability ([19]; first compound 1.265 µM) of the same compound?
Answer: 0.971

Question: And the relative viability ([19]; first compound 4 µM)?
Answer: 0.825

Question: What about the relative viability ([20]; first compound 0.04 µM) of the same compound?
Answer: 0.609

Question: And the relative viability ([20]; first compound 0.1265 µM)?
Answer: 0.773

Question: What about the relative viability ([20]; first compound 0.4 µM) of the same compound?
Answer: 0.916

Question: And the relative viability ([20]; first compound 4 µM)?
Answer: 0.693

Question: And the relative viability ([21]; first compound 0.04 µM)?
Answer: 0.714

Question: And the relative viability ([21]; first compound 0.1265 µM)?
Answer: 0.63

Question: And the relative viability ([21]; first compound 0.4 µM)?
Answer: 0.645

Question: What about the relative viability ([21]; first compound 4 µM) of the same compound?
Answer: 0.422

Question: And the relative viability ([22]; first compound 0.04 µM)?
Answer: 0.866

Question: What about the relative viability ([22]; first compound 0.1265 µM) of the same compound?
Answer: 0.571

Question: What about the relative viability ([22]; first compound 0.4 µM) of the same compound?
Answer: 0.866

Question: And the relative viability ([22]; first compound 1.265 µM)?
Answer: 0.632

Question: What about the relative viability ([22]; first compound 4 µM) of the same compound?
Answer: 0.605

Question: And the relative viability ([23]; first compound 0.04 µM)?
Answer: 1.05

Question: What about the relative viability ([23]; first compound 0.1265 µM) of the same compound?
Answer: 0.877

Question: And the relative viability ([23]; first compound 0.4 µM)?
Answer: 0.909

Question: What about the relative viability ([23]; first compound 1.265 µM) of the same compound?
Answer: 0.844

Question: And the relative viability ([23]; first compound 4 µM)?
Answer: 0.993

Source: the supplement of paper PMC10307832
